From patent US7071168B2, “Anti-cancer compounds and methods related thereto” (The Regents of the University of Colorado, priority 1998, dated 2006)
Non-standard residues stand in square brackets, D forms with d. No end group written: not given here. Oic = O=C(O)[C@@H]1C[C@@H]2CCCC[C@@H]2N1; dTic = O=C(O)[C@H]1Cc2ccccc2CN1

Each compound was assayed on bradykinin response of isolated guinea pig ileum (assay: Anti-bradykinin activity on isolated guinea pig ileum). Details: Table 1; higher numbers indicate higher potency.
Procedure: In general, Anti-bradykinin activity was determined by the classical guinea pig ileum assay and on Chinese hamster ovary (CHO) cells expressing cloned human bradykinin B2 receptors. Anti-tumor activity was determined on cultured human cancer cell lines using the standard tetrazolium (MTT) assay.
Male Hartley guinea pigs that had been deprived of food overnight were sacrificed, and sections of terminal ileum, 25 mm in length, were dissected, attached to tissue holders and immersed in 10 ml tissue baths containing Krebs' solution bubbled with 95% O2/5% CO2. Tissues were placed under 1 g tension and incubated for 1 h equilibration. Concentration-effect curves were constructed to bradykinin in the absence and presence of new compounds.
For F5c-Lys{(CH3)3}-Arg [M388], the “GPI: pA2 for bradykinin antagonist activity on isolated guinea pig ileum” value (“GPI: pA2” for short) was 4.9.
With F5c-PNF-Arg [M732] the “GPI: pA2” value was 4.9.
With F5c-Bip-Arg [M394] the “GPI: pA2” value was 4.7.
Dcg-Ile-Arg [M84] was tested, and the “GPI: pA2” value was 5.1.
For Dcg-(D,L)Ata-Arg [M96], the “GPI: pA2” value was 4.7.
In the case of F5c-Phe-Arg [M410], the “GPI: pA2” value is reported as 5.4.
Gun-Ica-Arg [M88] was tested, and the “GPI: pA2” value was 4.7.
Ac-PaF(Mcg)-Arg [M118-1] was tested, and the “GPI: pA2” value was 4.9.
RPPGFT[dTic][Oic]R [B10282] was tested, and the “GPI: pA2” value was 7.3.
In the case of F5c-DhPhe-Arg [M730], the “GPI: pA2” value is reported as 4.7.
N=C(N)NCCCC(NC(=O)C=Cc1ccc(C(F)(F)F)cc1)C(=O)O (stereo not drawn) [M374, Tfmc-Arg] was tested, and the “GPI: pA2” value was 4.6.
In the case of RPPGFT[dTic][Oic]-NH2 [B10284], the “GPI: pA2” value is reported as 7.7.
For “DArg-Arg-Nig-Hyp-Gly-Igl-Ser-DIgl-Oic-Arg [B9960]”, the “GPI: pA2” value was 7.7.
F5c-Pac-Arg [M398] was tested, and the “GPI: pA2” value was “Inact”.
In the case of Dcg-p-Amb-Arg [M346], the “GPI: pA2” value is reported as 4.6.
F5c-m-APa-Arg [M412] was tested, and the “GPI: pA2” value was 5.8.
For “DArg-Arg-Pro-Hyp-Gly-Igl-Ser-DIgl-Nc7G-Arg [B10010]”, the “GPI: pA2” value was 7.7.
With F5c-Thi-Arg [M424] the “GPI: pA2” value was 4.6.
With “Aca-DArg-Arg-Pro-Hyp-Gly-Thi-Ser-(D,L)Igl-Oic-Arg [B9224-2]” the “GPI: pA2” value was 8.4.
With Ac-PdF-Arg [M118-3] the “GPI: pA2” value was 5.4.
F5c-p-ABz-Arg [M148] was tested, and the “GPI: pA2” value was 5.1.
For F5c-Tic-Arg [M382], the “GPI: pA2” value was 4.7.
For DDD-(Eac-Arg-Digl-Oic-Arg)2 [B10198-1], the “GPI: pA2” value was 5.7.
In the case of F5c-Dpr(Fbz)-Arg [M688], the “GPI: pA2” value is reported as “Inact”.
F5c-DArg-Arg-Aud-DTic-hPhe-Arg [M766] was tested, and the “GPI: pA2” value was 5.1.
In the case of Dcg-Ac6c-Arg [M86], the “GPI: pA2” value is reported as 5.0.
“DArg-Arg-Pro-Hyp-Gly-Thi-Ser-CpG-DCpG-DArg [B8858]” was tested, and the “GPI: pA2” value was 5.2.
Dcg-Igl-Arg [M70] was tested, and the “GPI: pA2” value was 4.8.
In the case of F5c-p-Amb-Arg [M348], the “GPI: pA2” value is reported as 4.7.
In the case of “Aaa-DArg-Arg-Pro-Hyp-Gly-(D,L)DMF-Ser-DTic-Oic-Arg [B9126]”, the “GPI: pA2” value is reported as 6.4.
In the case of Dcg-Pac-Gly-m-ABz-2-Nal-Arg [M200-2], the “GPI: pA2” value is reported as 4.9.
For “DArg-Arg-Pro-Hyp-Gly-Phe-Ser-DCpG-CpG-Arg [B8840]”, the “GPI: pA2” value was 6.8.
For Ac-Pac-Gly-m-Abz-2-Nal-Arg [M198], the “GPI: pA2” value was 5.1.
In the case of Dcg-Atpc-Arg [M232-1], the “GPI: pA2” value is reported as 4.7.
In the case of F5c-Ana-Arg [M392], the “GPI: pA2” value is reported as 4.5.
For F5c-Trp-Arg [M426], the “GPI: pA2” value was “Inact”.

Same assay, conditions: isolated guinea pig ileum; pD2 of bradykinin is 7.4; higher numbers indicate higher potency
In the case of O=C(NC(CNC(=O)C(Cc1ccc2ccccc2c1)NC(=NC1CCCCC1)NC1CCCCC1)C(=O)O)C1CCNCC1 (stereo not drawn) [M172], the “GPI: pA2” value is reported as 4.9.
In the case of CC1(C)CC(NC(=O)C(CC(=O)O)NC(=O)Cc2ccc(NC(=NC3CCCCC3)NC3CCCCC3)cc2)CC(C)(C)N1 (stereo not drawn) [M362], the “GPI: pA2” value is reported as 4.9.
For O=C(O)CC(NC(=O)C(Cc1ccc2ccccc2c1)NC(=NC1CCCCC1)NC1CCCCC1)C(=O)NC1CN2CCC1CC2 (single isomer, unassigned) [M336-1], the “GPI: pA2” value was 5.1.
With CC1(C)CC(NC(=O)C(CC(=O)O)NC(=O)Cc2ccc(NC(=O)C=Cc3ccc(C(F)(F)F)cc3)cc2)CC(C)(C)N1 (stereo not drawn) [M368] the “GPI: pA2” value was 4.7.
For N=C(N)NCCCCCC(=O)NC(Cc1ccc2ccccc2c1)C(=O)NC(Cc1ccc(NC(=N)N)cc1)C(=O)O (stereo not drawn) [M8], the “GPI: pA2” value was “Inact”.
For O=C(C=Cc1c(F)c(F)c(F)c(F)c1F)NCC(=O)Nc1cccc(C(=O)N[C@@H](Cc2ccc3ccccc3c2)C(=O)O)c1 [M202], the “GPI: pA2” value was 5.1.
For O=C(NC(Cc1ccc(NC(=NC2CCCCC2)NC2CCCCC2)cc1)C(=O)O)c1ccc2ccccc2c1 (stereo not drawn) [M168-2], the “GPI: pA2” value was 4.7.
For Nc1cc(NC(=O)C(Cc2ccc3ccccc3c2)NC(=NC2CCCCC2)NC2CCCCC2)cc(C(=O)O)c1 (stereo not drawn) [M92-1], the “GPI: pA2” value was 5.0.
With O=C(O)Cc1ccc(NC(=O)C(NC(=NC2CCCCC2)NC2CCCCC2)C2Cc3ccccc3C2)cc1 (stereo not drawn) [M72-1] the “GPI: pA2” value was 4.7.
O=C(O)c1cccc(NC(=O)C(Cc2ccc3ccccc3c2)NC(=NC2CCCCC2)NC2CCCCC2)c1 (stereo not drawn) [M76] was tested, and the “GPI: pA2” value was 4.9.
In the case of N=C(N)Nc1cc(NC(=O)C(Cc2ccc3ccccc3c2)NC(=NC2CCCCC2)NC2CCCCC2)cc(C(=O)O)c1 (stereo not drawn) [M92-2], the “GPI: pA2” value is reported as 4.8.
In the case of O=C(C=Cc1c(F)c(F)c(F)c(F)c1F)Nc1ccc(C(=O)N[C@@H](Cc2ccc3ccccc3c2)C(=O)O)cc1 [M180], the “GPI: pA2” value is reported as 5.1.
CC1(C)CC(NC(=O)[C@@H](NC(=NC2CCCCC2)NC2CCCCC2)C2Cc3ccccc3C2)CC(C)(C)N1Cc1ccccc1 [M258] was tested, and the “GPI: pA2” value was 5.0.
In the case of CC(=O)Nc1ccc(C=CC(=O)NCC(=O)Nc2cccc(C(=O)NC(Cc3ccc4ccccc4c3)C(=O)O)c2)cc1 (stereo not drawn) [M204], the “GPI: pA2” value is reported as 5.0.
For N=C(N)NC(Cc1ccc2ccccc2c1)C(=O)Nc1ccc(CC(=O)O)cc1 (stereo not drawn) [M38], the “GPI: pA2” value was 4.9.
For O=C(O)CC(NC(=O)C(Cc1ccc2ccccc2c1)NC(=NC1CCCCC1)NC1CCCCC1)C(=O)O (stereo not drawn) [M162], the “GPI: pA2” value was 4.9.
CN1CCN(NC(=O)[C@H](Cc2ccc3ccccc3c2)NC(=O)C=Cc2ccc(NC(=O)CCCCCCCCCCC(=O)Nc3ccc(C=CC(=O)N[C@@H](Cc4ccc5ccccc5c4)C(=O)NN4CCN(C)CC4)cc3)cc2)CC1 [M480-2] was tested, and the “GPI: pA2” value was 5.6.
In the case of CC1(C)CC(NC(=O)C(CCC(=O)O)NC(=O)C(Cc2ccc3ccccc3c2)NC(=NC2CCCCC2)NC2CCCCC2)CC(C)(C)N1 (stereo not drawn) [M350], the “GPI: pA2” value is reported as 5.0.
In the case of CC1(C)CC(NC(=O)[C@H](Cc2ccc3ccccc3c2)NC(=O)C23CC4CC(CC(C4)C2)C3)CC(C)(C)N1 [M250], the “GPI: pA2” value is reported as 5.2.
In the case of O=C(O)Cc1ccc(NC(=O)C(Cc2ccc3ccccc3c2)NC(=NC2CCCCC2)NC2CCCCC2)cc1 (stereo not drawn) [M36], the “GPI: pA2” value is reported as 5.0.
For CC1(C)C=C(C(=O)NCCNC(=O)[C@H](Cc2ccc3ccccc3c2)NC(=NC2CCCCC2)NC2CCCCC2)C(C)(C)N1 [M270], the “GPI: pA2” value was 6.1.
